Here are results for 22 molecules from BindingDB's records for doi:10.1021/bi0200514 (Merck Research Laboratories, 2002).

Experiment [1] concerns the target Melanin-concentrating hormone receptor 2 (Homo sapiens, UniProt Q969V1).
Experiment [2] has as its target Melanin-concentrating hormone receptor 1 (Homo sapiens, UniProt Q99705).

pKi: −log10 of the molar value. Several values for one entry are separate records, joined by “and”; a condition that tells them apart may be missing. Equal values may be shown once. Positions of bridges follow the written chain, without caps; N, C: chain ends. Non-standard residues stand in square brackets, D forms with d. Residues, ends and D or L forms follow the SMILES beside them. *: point of attachment. Pentanoyl(5-guanidino) = NC(N)=NCCCCC(=O)*; Abu = CC[C@H](N)C(=O)O; Aoc = NCCCCCCCC(=O)O; Ava = NCCCCC(=O)O

Sequence of Melanin-concentrating hormone receptor 2 (Q969V1 whole entry): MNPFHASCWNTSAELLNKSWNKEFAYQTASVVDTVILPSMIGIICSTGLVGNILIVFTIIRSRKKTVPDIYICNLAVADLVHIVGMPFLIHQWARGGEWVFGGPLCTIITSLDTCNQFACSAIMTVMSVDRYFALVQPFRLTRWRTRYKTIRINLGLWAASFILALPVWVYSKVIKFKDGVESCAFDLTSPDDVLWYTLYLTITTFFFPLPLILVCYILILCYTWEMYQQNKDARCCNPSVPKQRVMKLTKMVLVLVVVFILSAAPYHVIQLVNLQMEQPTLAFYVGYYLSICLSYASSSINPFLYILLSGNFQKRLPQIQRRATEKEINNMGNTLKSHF
Sequence of Melanin-concentrating hormone receptor 1 (Q99705 as listed by the source): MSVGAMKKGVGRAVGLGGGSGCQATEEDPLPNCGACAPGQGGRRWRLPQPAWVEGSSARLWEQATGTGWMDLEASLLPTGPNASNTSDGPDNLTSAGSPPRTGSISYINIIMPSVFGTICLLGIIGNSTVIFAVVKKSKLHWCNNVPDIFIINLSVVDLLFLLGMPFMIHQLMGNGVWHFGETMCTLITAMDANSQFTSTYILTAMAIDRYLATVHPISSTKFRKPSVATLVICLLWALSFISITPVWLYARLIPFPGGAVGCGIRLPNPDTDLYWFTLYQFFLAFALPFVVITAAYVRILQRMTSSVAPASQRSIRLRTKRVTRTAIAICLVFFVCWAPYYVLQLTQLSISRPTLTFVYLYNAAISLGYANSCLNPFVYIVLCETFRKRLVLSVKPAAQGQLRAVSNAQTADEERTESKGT

For the molecule `CCCC[C@@H]1NC(=O)[C@@H](NC(=O)CCCCN=C(N)N)CSSC[C@@H](C(N)=O)NC(=O)CCCCNC(=O)[C@H](Cc2ccc(O)cc2)NC(=O)[C@H](C(C)C)NC(=O)[C@H](CCCN=C(N)N)NC(=O)CNC(=O)[C@H](CC(C)C)NC1=O` [Gva6,Nle8,Ava14,15], the negative-log Ki (pKi) in experiment [1] is 7.15; in experiment [2], 8.33.

With `CSCC[C@@H]1NC(=O)[C@@H](NC(=O)CCCCN=C(N)N)CSSC[C@@H](C(N)=O)NC(=O)CCCCNC(=O)[C@H](Cc2ccc(O)cc2)NC(=O)[C@H](C(C)C)NC(=O)[C@H](CCCN=C(N)N)NC(=O)CCCCNC1=O` [Gva6,Ava9,10,Ava14,15] ({Pentanoyl(5-guanidino)}-CM[Ava]RVY[Ava]C-NH2; disulfide 1-8), the pKi in experiment [1] is 7.40; in experiment [2], 7.35.

For `CSCC[C@@H]1NC(=O)[C@@H](NC(=O)[C@H](CCCN=C(N)N)NC(C)=O)CSSC[C@@H](C(N)=O)NC(=O)CCCCNC(=O)[C@H](Cc2ccc(O)cc2)NC(=O)[C@H](C(C)C)NC(=O)[C@H](CCCN=C(N)N)NC(=O)CNC(=O)[C@H](CC(C)C)NC1=O` [Ava14,15], the pKi was 7.30 in experiment [1] and 8.74 in experiment [2].

For `CC(C)C[C@@H]1NC(=O)[C@H](C)NC(=O)[C@@H](NC(=O)CCCCN=C(N)N)CSSC[C@@H](C(N)=O)NC(=O)CCCCNC(=O)[C@H](Cc2ccc(O)cc2)NC(=O)[C@H](C(C)C)NC(=O)[C@H](CCCN=C(N)N)NC(=O)CNC1=O` [Gva6,Ala8,Ava14,15] ({Pentanoyl(5-guanidino)}-CALGRVY[Ava]C-NH2; disulfide 1-9), the results for the negative logarithm of the Ki (pKi) in experiment [1] and in experiment [2] were 7.48 and 7.08, respectively.

Consider `CSCC[C@@H]1NC(=O)[C@@H](NC(=O)CCCCN=C(N)N)CSSC[C@@H](C(N)=O)NC(=O)CCCNC(=O)[C@H](Cc2ccc(O)cc2)NC(=O)[C@H](C(C)C)NC(=O)[C@H](CCCN=C(N)N)NC(=O)CNC(=O)[C@H](CC(C)C)NC1=O` [Gva6,gammaAbu14,15], for which the negative logarithm of the Ki (pKi) is 7.32 in experiment [1] and 7.62 in experiment [2].

For the molecule `CSCC[C@@H]1NC(=O)[C@@H](NC(=O)[C@H](CCN=C(N)N)NC(C)=O)CSSC[C@@H](C(N)=O)NC(=O)CCCCNC(=O)[C@H](Cc2ccc(O)cc2)NC(=O)[C@H](C(C)C)NC(=O)[C@H](CCCN=C(N)N)NC(=O)CNC(=O)[C@H](CC(C)C)NC1=O` [Gpr6,Ava14,15], the pKi in experiment [1] and in experiment [2] was 7.37 in each case.

For the molecule `CSCC[C@@H]1NC(=O)[C@@H](NC(=O)CCCCN=C(N)N)CSSC[C@@H](C(N)=O)NC(=O)CCCCNC(=O)[C@H](Cc2ccc(O)cc2)NC(=O)[C@H](C(C)C)NC(=O)[C@H](CCCN=C(N)N)NC(=O)CNC1=O` [Gva6,desLeu9,Ava14,15] ({Pentanoyl(5-guanidino)}-CMGRVY[Ava]C-NH2; disulfide 1-8), the figures for the pKi in experiment [1] and in experiment [2] were 7.70 and 5.87, respectively.

Regarding `CSCC[C@@H]1NC(=O)[C@@H](NC(=O)CCCN=C(N)N)CSSC[C@@H](C(N)=O)NC(=O)CCCCNC(=O)[C@H](Cc2ccc(O)cc2)NC(=O)[C@H](C(C)C)NC(=O)[C@H](CCCN=C(N)N)NC(=O)CNC(=O)[C@H](CC(C)C)NC1=O` [Gbu6,Ava14,15], the values for the pKi in experiment [1] and in experiment [2] were 7.35 and 8.10, respectively.

For `CC[C@@H]1NC(=O)[C@@H](NC(=O)CCCCN=C(N)N)CSSC[C@@H](C(N)=O)NC(=O)CCCCNC(=O)[C@H](Cc2ccc(O)cc2)NC(=O)[C@H](C(C)C)NC(=O)[C@H](CCCN=C(N)N)NC(=O)CNC(=O)[C@H](CC(C)C)NC1=O` [Gva6,alphaAbu8,Ava14,15] ({Pentanoyl(5-guanidino)}-C[Abu]LGRVY[Ava]C-NH2; disulfide 1-9), the pKi is 7.37 in experiment [1] and 6.49 in experiment [2].

Turning to `CC(=O)N[C@@H](CCCN=C(N)N)C(=O)N[C@H]1CSSC[C@@H](C(N)=O)NC(=O)[C@@H]2CCCN2C(=O)[C@H](CCCN=C(N)N)NC(=O)[C@H](Cc2ccc(O)cc2)NC(=O)[C@H](C(C)C)NC(=O)[C@H](CCCN=C(N)N)NC(=O)CCCCCCCNC1=O` [Aoct8,9,10] (Ac-RC[Aoc]RVYRPC-NH2; disulfide 2-9), the values for the negative logarithm of the Ki (pKi) in experiment [1] and in experiment [2] were 7.20 and 5.32, respectively.

On to `CSCC[C@@H]1NC(=O)[C@H](NC(=O)[C@H](CCCN=C(N)N)NC(C)=O)CSSC[C@@H](C(N)=O)NC(=O)CCCCNC(=O)[C@H](Cc2ccc(O)cc2)NC(=O)[C@H](C(C)C)NC(=O)[C@H](CCCN=C(N)N)NC(=O)CNC(=O)[C@H](CC(C)C)NC1=O` [D-Cys7,Ava14,15], for which the results for the negative-log Ki (pKi) in experiment [1] and in experiment [2] were 7.70 and 6.47, respectively.

For `CSCC[C@@H]1NC(=O)[C@@H](NC(=O)CCCCN=C(N)N)CSSC[C@@H](C(N)=O)NC(=O)[C@H]2CC[C@H](CC2)NC(=O)[C@H](Cc2ccc(O)cc2)NC(=O)[C@H](C(C)C)NC(=O)[C@H](CCCN=C(N)N)NC(=O)CNC(=O)[C@H](CC(C)C)NC1=O` [Gva6,cisAcx14,15], the negative-log Ki (pKi) in experiment [1] was 5.51; in experiment [2], 8.00.

For the molecule `CSCC[C@@H]1NC(=O)[C@@H](NC(=O)CCCCN=C(N)N)CSSC[C@@H](C(N)=O)NC(=O)CCCCNC(=O)[C@H](Cc2ccc(O)cc2)NC(=O)[C@H](C)NC(=O)[C@H](CCCN=C(N)N)NC(=O)CNC(=O)[C@H](CC(C)C)NC1=O` [Gva6,Ala12,Ava14,15] ({Pentanoyl(5-guanidino)}-CMLGRAY[Ava]C-NH2; disulfide 1-9), the negative-log Ki (pKi) was 7.46 in experiment [1] and 7.60 in experiment [2].

Regarding `CSCC[C@@H]1NC(=O)[C@@H](NC(=O)CCCCN=C(N)N)CSSC[C@@H](C(N)=O)NC(=O)[C@@H]2CCCN2C(=O)[C@H](CCCN=C(N)N)NC(=O)[C@H](Cc2ccc(O)cc2)NC(=O)[C@H](C(C)C)NC(=O)[C@H](CCCN=C(N)N)NC(=O)CCCCNC1=O` [Gva6,Ava9,10], the negative logarithm of the Ki (pKi) in experiment [1] is 7.32; in experiment [2] it was 8.30.

In the case of `CSCC[C@@H]1NC(=O)[C@H](NC(=O)CCCCN=C(N)N)CSSC[C@@H](C(N)=O)NC(=O)CCCCNC(=O)[C@H](Cc2ccc(O)cc2)NC(=O)[C@H](C(C)C)NC(=O)[C@H](CCCN=C(N)N)NC(=O)CNC(=O)[C@H](CC(C)C)NC1=O` [Gva6,D-Cys7,Ava14,15], the negative-log Ki (pKi) in experiment [1] is 7.60; in experiment [2] it was 6.92.

`CSCC[C@@H]1NC(=O)[C@@H](NC(=O)[C@@H](CCCN=C(N)N)NC(C)=O)CSSC[C@@H](C(N)=O)NC(=O)CCCCNC(=O)[C@H](Cc2ccc(O)cc2)NC(=O)[C@H](C(C)C)NC(=O)[C@H](CCCN=C(N)N)NC(=O)CCCCNC1=O` [D-Arg6,Ava9,10,Ava14,15]: the results for the negative logarithm of the Ki (pKi) in experiment [1] and in experiment [2] were 7.35 and 7.16, respectively.

With `CSCC[C@@H]1NC(=O)[C@@H](NC(=O)[C@H](CCCNC(=N)N)NC(C)=O)CSSC[C@@H](C(N)=O)NC(=O)[C@@H]2CCCN2C(=O)[C@H](CCCNC(=N)N)NC(=O)[C@H](Cc2ccc(O)cc2)NC(=O)[C@H](C(C)C)NC(=O)[C@H](CCCNC(=N)N)NC(=O)CNC(=O)[C@H](CC(C)C)NC1=O` [hAc-MCH(6-16)-NH2], the pKi in experiment [1] is 8.57; in experiment [2], 9.80.

Turning to `CSCC[C@@H]1NC(=O)[C@@H](NC(=O)[C@@H](CCCN=C(N)N)NC(C)=O)CSSC[C@@H](C(N)=O)NC(=O)CCCCNC(=O)[C@H](Cc2ccc(O)cc2)NC(=O)[C@H](C(C)C)NC(=O)[C@H](CCCN=C(N)N)NC(=O)CNC(=O)[C@H](CC(C)C)NC1=O` [D-Arg6,Ava14,15], the pKi in experiment [1] is 7.19; in experiment [2] it was 7.95.

On to `CSCC[C@@H]1NC(=O)[C@@H](NC(=O)CCCCN=C(N)N)CSSC[C@@H](C(=O)O)NC(=O)CCCCNC(=O)[C@H](Cc2ccc(O)cc2)NC(=O)[C@H](C(C)C)NC(=O)[C@H](CCCN=C(N)N)NC(=O)CNC(=O)[C@H](CC(C)C)NC1=O` [Gva6,Ava14,15, OH], for which the pKi in experiment [1] was 7.42; in experiment [2], 7.18.

Turning to `CSCC[C@@H]1NC(=O)[C@@H](N)CSSC[C@@H](C(N)=O)NC(=O)CCCCNC(=O)[C@H](Cc2ccc(O)cc2)NC(=O)[C@H](C(C)C)NC(=O)[C@H](CCCN=C(N)N)NC(=O)CNC(=O)[C@H](CC(C)C)NC1=O` [des(Ac-Arg6),Ava14,15], the pKi in experiment [1] was 7.11 and 7.32; in experiment [2], 6.52 and 6.72.

Turning to `CC(=O)N[C@@H](CCCN=C(N)N)C(=O)N[C@H]1CSSC[C@@H](C(N)=O)NC(=O)CCCCNC(=O)[C@H](Cc2ccc(O)cc2)NC(=O)[C@H](C(C)C)NC(=O)[C@H](CCCN=C(N)N)NC(=O)CNC(=O)[C@H](CC(C)C)NC(=O)[C@H](C)NC1=O` [Ala8,Ava14,15] (Ac-RCALGRVY[Ava]C-NH2; disulfide 2-10), in experiment [1], the pKi is 7.42.

As for `CSCC[C@@H]1NC(=O)[C@@H](NC(=O)[C@H](CCCNC(=N)N)NC(=O)[C@H](CC(C)C)NC(=O)[C@H](CCSC)NC(=O)[C@H](CC(=O)O)NC(=O)[C@H](Cc2ccccc2)NC(=O)[C@@H](N)CC(=O)O)CSSC[C@@H](C(=O)N[C@@H](Cc2c[nH]c3ccccc23)C(=O)N[C@@H](CCC(N)=O)C(=O)N[C@H](C(=O)O)C(C)C)NC(=O)[C@@H]2CCCN2C(=O)[C@H](CCCNC(=N)N)NC(=O)[C@H](Cc2ccc(O)cc2)NC(=O)[C@H](C(C)C)NC(=O)[C@H](CCCNC(=N)N)NC(=O)CNC(=O)[C@H](CC(C)C)NC1=O` [hMCH], the pKi in experiment [1] is 8.54.

The term pKi denotes −log10 of the Ki, conventionally taken in molar units.
